pIC50: −log10 of the molar value. Values joined by “and” are separate entries in the source; they are usually repeats but may differ in a detail not shown here. Equal entries are not always repeated.
These compounds were tested against SARS-CoV-2 Main Protease (SARS-CoV-2) (UniProt P0DTD1).
`Cc1ccc(S(=O)(=O)N2CCN(C(=O)c3cc(=O)[nH]c4cc(F)ccc34)CC2)c(C)c1` was tested, and the pIC50 was under 4.00. `CCNC(=O)c1ccc(N(C(=O)c2cocn2)C(C(=O)NCCc2cccc(F)c2)c2cccnc2)cc1` (configuration not stated) showed a pIC50 of under 4.00. Work on `CC(C)(C)c1ccc(N(C(=O)c2cocn2)C(C(=O)NCCc2nnn[nH]2)c2cccnc2)cc1` (configuration not stated) yielded a pIC50 of under 4.00. `Cc1ccncc1NC(=O)Cc1cc(Cl)cc(-c2ncc[nH]2)c1` showed a pIC50 of under 4.00. Work on `CN1CCN(c2cncc3ccccc23)C(=O)C1c1cccc(Cl)c1` (configuration not stated) yielded a pIC50 of 5.66. For `CC(C)NC(=O)CN1CC(C(=O)Nc2cncc3cc(S(C)(=O)=O)ccc23)c2cc(Cl)ccc2C1=O` (configuration not stated), the pIC50 was 6.48. Work on `O=C1C(=O)N(Cc2ccccc2)c2ccc([N+](=O)[O-])cc21` yielded a pIC50 of under 4.00. `CC(C)(C)c1ccc(N(C(=O)c2ccncc2)C(C(=O)NCCc2cccc(F)c2)c2cccnc2)cc1` (configuration not stated) showed a pIC50 of under 4.00. `CC(C)(C)c1ccc(N(C(=O)c2cnco2)C(C(=O)NCCc2cccc(F)c2)c2cccnc2)cc1` (configuration not stated) showed a pIC50 of 5.32. `CCCc1cc2c(cc1S(=O)(=O)N1CCN(c3cccc(Cl)c3Cl)CC1)OCO2` gave a pIC50 of under 4.00. `O=C(NCc1ccccc1)[C@@H]1CN(C(=O)CCl)CCN1S(=O)(=O)c1ccsc1` (stereo in doubt) gave a pIC50 of 6.30. Work on `O=C(Cc1cccc(Cl)c1)NC1CS(=O)(=O)Cc2ccccc21` (configuration not stated) yielded a pIC50 of under 4.00. With `O=C(Cc1cc(Cl)cc(Nc2cnc(Cl)c(Br)c2)c1)Nc1cncc2ccccc12` the pIC50 was 5.51. `N#Cc1ccc(CN2CCC(C3CCNC3)CC2)cc1` (configuration not stated) was tested, and the pIC50 was 5.69. In the case of `CC(C)(C)OC(=O)N1CCC(NC(=O)C(c2cccnc2)N(C(=O)c2cocn2)c2ccc(C(C)(C)C)cc2)C1` (configuration not stated), the pIC50 was 5.44. Work on `O=C(NCc1nnc2c(=O)[nH]ccn12)c1ccnc2ccnn12` yielded a pIC50 of under 4.00. Work on `Cc1ccc(S(=O)(=O)N2CCN(C(=O)CCl)C[C@H]2C(=O)NCCc2ccccc2)cc1` (stereo in doubt) yielded a pIC50 of 4.93. Work on `O=C(Cc1cc(Cl)cc(NCc2ccc(Br)cc2F)c1)Nc1cncc2ccccc12` yielded a pIC50 of 5.46. In the case of `COc1nc(Br)cnc1Nc1cc(Cl)cc(CC(=O)Nc2cncc3ccccc23)c1`, the pIC50 was 5.69. Work on `O=C(Cc1cc(Cl)cc(N[C@@H](CO)Cc2ccccc2)c1)Nc1cncc2ccccc12` (stereo in doubt) yielded a pIC50 of 5.60. `O=C(Cc1cncc2ccccc12)Nc1cc(Cl)cc(OC2CCC(=O)N2)c1` (configuration not stated) was tested, and the pIC50 was 4.42. Work on `CCc1nc(-c2nnc[nH]2)sc1C(=O)N(c1ccc(C(C)(C)C)cc1)C(C(=O)NCCc1cccc(F)c1)c1cccnc1` (configuration not stated) yielded a pIC50 of under 4.00. `CC(C)(C)c1ccc(N(C(=O)c2c[nH]nn2)C(C(=O)NCCc2cccc(F)c2)c2cccnc2)cc1` (configuration not stated) was tested, and the pIC50 was 5.93. Work on `O=C(CN1CC(C(=O)Nc2cncc3ccccc23)c2cc(Cl)ccc2C1=O)NCC1CCC1` (configuration not stated) yielded a pIC50 of 6.97. Work on `O=C(CC1(C(=O)Nc2cncc3ccccc23)CCOc2ccc(Cl)cc21)N1CCC2CS(=O)(=O)CC2C1` (configuration not stated) yielded a pIC50 of 5.78. With `CC(C)(C)c1ccc(N(C(=O)c2cocn2)C(C(=O)NCCc2cccc(F)c2)c2cc(=O)[nH]c3ccccc23)cc1` (configuration not stated) the pIC50 was 5.94. In the case of `CC(C)(C(N)=O)c1ccc(N(Cc2ccsc2)C(=O)Cn2nnc3ccccc32)cc1`, the pIC50 was 5.50. Compound `Cn1ccn2c(CNc3nc4ccccc4s3)nnc2c1=O` has a pIC50 of under 4.00. `Cn1c(=O)oc2cc(S(=O)(=O)Nc3ccc4ncccc4c3)ccc21` showed a pIC50 of under 4.00. Compound `O=C(Cc1cc(Cl)cc(Nc2cc(Cl)c(Br)cn2)c1)Nc1cncc2ccccc12` has a pIC50 of 5.71. In the case of `O=C(Nc1cncc2ccccc12)C1CN(C2CCNC2=O)C(=O)c2ccc(Cl)cc21` (configuration not stated), the pIC50 was 6.14. With `CC(C)(C)Oc1ccncc1NC(=O)Cc1cccc(Cl)c1` the pIC50 was 4.64. With `CC(C)(C)c1ccc(N(C(=O)c2cocn2)C(C(=O)NCCc2cccc(F)c2)c2c(N3CCOCC3)nc3ccccn3c2=O)cc1` (configuration not stated) the pIC50 was under 4.00. In the case of `Cc1cnn(C)c1C(=O)N1Cc2ccc(Cl)cc2C2(CCN(c3cncc4ccccc34)C2=O)C1` (configuration not stated), the pIC50 was 6.17. Compound `O=C(Cn1nnc2ccccc21)N(Cc1ccsc1)c1ccc(N2CCCCC2)cc1` has a pIC50 of 5.18. `COc1ccc2n[nH]c(NC(=O)Cc3cccc(Cl)c3)c2c1` was tested, and the pIC50 was under 4.00. For `Cc1ccncc1NC(=O)Cc1cc(Cl)cc(NCC(C)(C)C#N)c1`, the pIC50 was 4.44. `Cn1ccc2cc(N(C(=O)c3cocn3)C(C(=O)NCCc3cccc(F)c3)c3cccnc3)ccc21` (configuration not stated) was tested, and the pIC50 was 4.62. With `O=C(NNc1nc2cccnc2s1)c1ccc2ccncc2c1` the pIC50 was under 4.00. `COc1ccc(N(Cc2ccccc2)C(=O)Cc2c[nH]c3ccccc23)cc1` showed a pIC50 of under 4.00. For `CC(C)(C)c1ccc(N(C(=O)c2nnc(S)[nH]c2=O)C(C(=O)NCCc2cccc(F)c2)c2cccnc2)cc1` (configuration not stated), the pIC50 was under 4.00. With `O=C1NC[C@H](C(=O)Nc2cncc3ccccc23)c2cc(Cl)ccc21` (stereo in doubt) the pIC50 was 6.73. `CNC(=O)CN1Cc2ccc(Cl)cc2C(C(=O)Nc2cncc3cc(NS(C)(=O)=O)ccc23)C1` (configuration not stated) was tested, and the pIC50 was 7.14. `O=C(Nc1cncc2ccccc12)[C@H]1COc2ccc(Cl)cc2C1` (stereo in doubt) showed a pIC50 of under 4.00. `Cn1cc(-c2cc(C(=O)N(c3ccc(C(C)(C)C)cc3)C(C(=O)NCCc3cccc(F)c3)c3cccnc3)on2)cn1` (configuration not stated) gave a pIC50 of under 4.00. With `CCCc1nn(C)c(C(=O)Nc2cc(Cl)cc(CC(=O)Nc3cncc4ccccc34)c2)c1N` the pIC50 was 5.13. With `O=C1CCN(S(=O)(=O)c2cccs2)CC1` the pIC50 was under 4.00. With `CN1CCCC(N(C(=O)c2cocn2)C(C(=O)NCCc2cccc(F)c2)c2cccnc2)C1` (configuration not stated) the pIC50 was under 4.00. For `C=CC(=O)NCC(=O)N(CCN1CCOCC1)Cc1sccc1Br`, the pIC50 was under 4.00. `CC(NC(=O)c1nccc2cccnc12)c1ccc2[nH]c(=O)oc2c1` (configuration not stated) showed a pIC50 of under 4.00. With `N#CC1(CS(=O)(=O)N2Cc3ccc(Cl)cc3C3(CCN(c4cncc5c4CCCC5)C3=O)C2)CC1` (configuration not stated) the pIC50 was 6.29. For `COc1cccc(C2=N/C(=C/c3sccc3C)C(=O)O2)c1`, the pIC50 was 5.93. `Clc1ccc2c(c1)C1(CCO2)CCN(c2cncc3cccc(Cl)c23)C1` (configuration not stated) was tested, and the pIC50 was under 4.00. `O=C(Cc1cc(Cl)cc(Nc2nc3c(Cl)cccc3s2)c1)Nc1cncc2ccccc12` showed a pIC50 of 5.68. Compound `C=CC(=O)N(c1ccc(C(C)(C)C)cc1)C(C(=O)NCc1ccccc1)c1cccnc1` (configuration not stated) has a pIC50 of 4.48. For `O=C(Cc1cc(Cl)cc(Nc2ncccc2OCc2ccccc2)c1)Nc1cncc2ccccc12`, the pIC50 was 5.70. In the case of `N#CC1(CS(=O)(=O)N2Cc3ccc(Cl)cc3C3(CCN(c4cncc5ccc(C(F)F)cc45)C3=O)C2)CC1` (configuration not stated), the pIC50 was 6.45. Compound `CCC(C)(C)CCN(Cc1ccsc1)C(=O)Cn1nnc2ccccc21` has a pIC50 of 4.11. `CNC(=O)CN1CC(C(=O)Nc2cncc3cccc(Cl)c23)c2cc(Cl)ccc2C1=O` (configuration not stated) showed a pIC50 of 7.04. Work on `O=C(NCCc1cccc(F)c1)C(c1cccnc1)N(C(=O)c1cnc[nH]1)c1cnc(C2CCC2)nc1` (configuration not stated) yielded a pIC50 of under 4.00. In the case of `CC1(C)OB(c2cnc(C#N)nc2)OC1(C)C`, the pIC50 was under 4.00. Work on `CC(Cn1ccnc1C#N)c1cccc(Cl)c1` (configuration not stated) yielded a pIC50 of under 4.00. For `C=CC(=O)N(c1ccc(C(C)(C)C)cc1)C(C(=O)Nc1ccc2c(c1)OCO2)c1cccnc1` (configuration not stated), the pIC50 was 4.44. `O=C(Nc1cncc2ccccc12)C1c2cc(Cl)ccc2CCN1S(=O)(=O)C1CC1` (configuration not stated) gave a pIC50 of 5.94. For `O=C(Cc1cc(Cl)cc(NCC(c2ccccc2)c2ccccc2)c1)Nc1cncc2ccccc12`, the pIC50 was 5.24. For `CC1(CS(=O)(=O)N2Cc3ccc(Cl)cc3[C@H](C(=O)Nc3cncc4ccccc34)C2)CC1` (stereo in doubt), the pIC50 was > 7.30 and 7.07 and 7.34. `CS(=O)(=O)c1ccc2c(NC(=O)C3CN(CC(=O)NC4CC4)C(=O)c4ccc(Cl)cc43)cncc2c1` (configuration not stated) showed a pIC50 of 6.67. `COc1ccc(Nc2cc(Cl)cc(CC(=O)Nc3cncc4ccccc34)c2)cc1C(F)(F)F` showed a pIC50 of 5.72. `COC(CNC(=O)C(c1cccnc1)N(C(=O)c1cocn1)c1ccc(C(C)(C)C)cc1)OC` (configuration not stated) gave a pIC50 of 5.10. `Cc1cccc(C2CCCCN2C(=O)C(C)c2cncnc2)c1C` (configuration not stated) was tested, and the pIC50 was under 4.00. In the case of `CCN(C)CCOc1ccc2cncc(N3CCC4(CN(S(=O)(=O)CC5(C#N)CC5)Cc5ccc(Cl)cc54)C3=O)c2c1` (configuration not stated), the pIC50 was 6.40. `O=C(NCCc1cccc(F)c1)C(c1cccnc1)N(C(=O)c1cocn1)c1ccc(-n2ccnc2)cc1` (configuration not stated) gave a pIC50 of under 4.00. In the case of `COCc1csc(CNC(=O)c2ncc(Cl)cc2Cl)c1`, the pIC50 was under 4.00. For `CC(CCc1ccccc1)N1CCN(C(=O)CCl)CC1` (configuration not stated), the pIC50 was 4.69. `CN(CCC#N)S(=O)(=O)N1Cc2ccc(Cl)cc2C2(CCN(c3cncc4ccccc34)C2=O)C1` (configuration not stated) showed a pIC50 of 6.21. `O=C(Cc1cccc(Cl)c1)Nn1cnc2ccccc21` gave a pIC50 of 5.08. In the case of `O=C(Cc1cc(Cl)cc(Nc2ccnc(Br)c2)c1)Nc1cncc2ccccc12`, the pIC50 was 5.56. `COC(OC)C(=O)N1CCN(Cc2cccc(Cl)c2)CC1` showed a pIC50 of 4.03. Compound `Cc1cc(C(=O)N2CCC(C3CCNC3)CC2)cc(C)c1OC(F)F` (configuration not stated) has a pIC50 of under 4.00. `O=C(Cc1cc(Cl)cc(Nc2c(F)cc(F)cc2[N+](=O)[O-])c1)Nc1cncc2ccccc12` gave a pIC50 of 5.69. In the case of `N#Cc1cnn(-c2ccccn2)c1Nc1cc(Cl)cc(CC(=O)Nc2cncc3ccccc23)c1`, the pIC50 was 5.76. `CN(C(=O)Cn1nnc2ccccc21)c1ccc(Oc2ccc(C(F)(F)F)cn2)cc1` showed a pIC50 of 4.42. With `N#CCN1Cc2ccc(Cl)cc2C(C(=O)Nc2cncc3ccccc23)C1` (configuration not stated) the pIC50 was 6.47. `Cc1nccn1Cc1ccc2c(NC(=O)C3CCOc4ccc(Cl)cc43)cncc2c1` (configuration not stated) was tested, and the pIC50 was 5.27. `O=C(NCCc1ccccc1)[C@@H](c1ccccc1)N1Cc2ccccc2C1=O` (stereo in doubt) showed a pIC50 of under 4.00. With `O=C(CCl)Nc1cccc(N2CCCC2=O)c1` the pIC50 was 4.14 and 4.16. Compound `O=C(CCc1nc2ccccc2[nH]1)N1CCC(CCc2ccccc2)CC1` has a pIC50 of under 4.00. `CCC(=O)Nc1ccc(N(C)C(=O)Cn2nnc3ccccc32)cc1` was tested, and the pIC50 was under 4.00. Compound `CC(C)(C)c1ccc(N(C(=O)c2cocn2)C(C(=O)NCCc2cccc(F)c2)c2cnccn2)cc1` (configuration not stated) has a pIC50 of 5.92. `CC1(C(=O)Nc2cncc3ccccc23)CN(CC2CC2)S(=O)(=O)c2ccc(Cl)cc21` (configuration not stated) was tested, and the pIC50 was 6.20. In the case of `C[C@H](C/C=C/C(C)(C)O)[C@H]1CC[C@@]2(C)[C@@H]3C=C[C@@]45OC[C@]3(CC[C@]12C)[C@@H]4CC[C@H](O)C5(C)C` (stereo in doubt), the pIC50 was under 4.00. `O=C(NCCc1cccc(F)c1)C(c1cccnc1)N(C(=O)c1cocn1)c1ccc(OC2CCOC2)cc1` (configuration not stated) was tested, and the pIC50 was 5.20. `CCC1(C(=O)Nc2cncc3ccc(S(C)(=O)=O)cc23)CNC(=O)c2ccc(Cl)cc21` (configuration not stated) showed a pIC50 of 5.84. In the case of `CN(C)C(=O)CN1CCN(c2cc(Cl)cc(CC(=O)Nc3cncc4ccccc34)c2)CC1`, the pIC50 was 5.55. Compound `CNC1CCc2c(NC(=O)C3CCOc4ccc(Cl)cc43)cncc21` (configuration not stated) has a pIC50 of under 4.00. `O=C(NCCc1cccc(F)c1)C(c1cccnc1)N(C(=O)c1cocn1)c1ccc(N2CCCS2(=O)=O)cc1` (configuration not stated) was tested, and the pIC50 was 4.56. `CNC(=O)CN1CC2(CCN(c3cncc4cc(Cl)ccc34)C2=O)c2cc(Cl)ccc2C1=O` (configuration not stated) showed a pIC50 of 6.35.
